Values joined by “and” are separate entries in the source; they are usually repeats but may differ in a detail not shown here. Identical values can stand only once. Numbers after ± are expanded uncertainties.
Settings: Liquid, Calculated from knudsen effusion weight loss

[Br-].[Br-].[Br-].[Tm+3] [thulium tribromide]
Settings	vapor or sublimation pressure
921 K	0.0001148 ± 6.8e-06 kPa
924 K	0.0001259 ± 7.1e-06 kPa
927 K	0.0001349 ± 1.3e-05 kPa
931 K	0.0002042 ± 1.2e-05 kPa
937 K	0.0002042 ± 1.8e-05 kPa
938 K	0.0002188 ± 1.2e-05 kPa and 0.0002754 ± 1.4e-05 kPa
942 K	0.0002291 ± 1.5e-05 kPa
947 K	0.000309 ± 2.3e-05 kPa and 0.0004074 ± 2.9e-05 kPa
949 K	0.0003467 ± 2.6e-05 kPa
952 K	0.0004074 ± 2.2e-05 kPa
953 K	0.0003631 ± 2.5e-05 kPa
956 K	0.0004571 ± 5e-05 kPa
958 K	0.0005888 ± 3e-05 kPa
961 K	0.0005012 ± 2.8e-05 kPa
964 K	0.0006607 ± 5.4e-05 kPa
965 K	0.0006607 ± 5.3e-05 kPa
967 K	0.0007762 ± 3.9e-05 kPa
968 K	0.000631 ± 3.2e-05 kPa
971 K	0.0007244 ± 6.8e-05 kPa
974 K	0.0009772 ± 6.4e-05 kPa
976 K	0.000912 ± 5.4e-05 kPa
978 K	0.001096 ± 0.00011 kPa
980 K	0.0009772 ± 6.6e-05 kPa
984 K	0.001318 ± 0.00015 kPa
987 K	0.001288 ± 0.00014 kPa
988 K	0.001514 ± 0.00017 kPa and 0.001349 ± 0.00015 kPa
990 K	0.001445 ± 0.00016 kPa
995 K	0.001622 ± 0.00021 kPa
999 K	0.002399 ± 0.00031 kPa
1000 K	0.001995 ± 0.00024 kPa
1001 K	0.002239 ± 0.0003 kPa
1004 K	0.00257 ± 0.00032 kPa and 0.002291 ± 0.00028 kPa
1006 K	0.002692 ± 0.00033 kPa
1007 K	0.002455 ± 0.00036 kPa
1009 K	0.003236 ± 0.00042 kPa and 0.002951 ± 0.00038 kPa
1013 K	0.003236 ± 0.00041 kPa and 0.004074 ± 0.00054 kPa
1015 K	0.003467 ± 0.00044 kPa and 0.003162 ± 0.0004 kPa
1019 K	0.003548 ± 0.00048 kPa
1020 K	0.004571 ± 0.00084 kPa and 0.004677 ± 0.00085 kPa
1022 K	0.00537 ± 0.00073 kPa
1024 K	0.004365 ± 0.00064 kPa
1025 K	0.004677 ± 0.00066 kPa
1026 K	0.004786 ± 0.00064 kPa
1027 K	0.004571 ± 0.00074 kPa
1028 K	0.005623 ± 0.00083 kPa
1030 K	0.005623 ± 0.00077 kPa
1033 K	0.005495 ± 0.00077 kPa
1035 K	0.006607 ± 0.00093 kPa
1037 K	0.005754 ± 0.00084 kPa
1038 K	0.007762 ± 0.0013 kPa
1039 K	0.006918 ± 0.001 kPa
1042 K	0.006607 ± 0.00097 kPa
1043 K	0.008511 ± 0.0014 kPa
1046 K	0.00955 ± 0.0016 kPa
1048 K	0.01288 ± 0.0021 kPa
1050 K	0.00955 ± 0.0014 kPa
1056 K	0.01349 ± 0.0022 kPa
1061 K	0.01445 ± 0.0023 kPa
1063 K	0.01318 ± 0.0024 kPa
1066 K	0.01995 ± 0.0034 kPa
1070 K	0.01995 ± 0.0034 kPa
1073 K	0.02754 ± 0.0048 kPa
1076 K	0.02512 ± 0.0043 kPa
1080 K	0.0263 ± 0.0046 kPa
1088 K	0.03388 ± 0.0091 kPa
1089 K	0.04074 ± 0.0074 kPa
1092 K	0.03467 ± 0.0061 kPa
1096 K	0.04266 ± 0.0078 kPa
1103 K	0.04677 ± 0.0088 kPa
1105 K	0.06457 ± 0.013 kPa
1107 K	0.06166 ± 0.012 kPa
1116 K	0.06761 ± 0.014 kPa
1118 K	0.07943 ± 0.016 kPa
1123 K	0.09772 ± 0.02 kPa
1127 K	0.1047 ± 0.021 kPa and 0.09333 ± 0.019 kPa
1135 K	0.1288 ± 0.027 kPa
1136 K	0.1349 ± 0.029 kPa
1143 K	0.166 ± 0.035 kPa
1155 K	0.2138 ± 0.046 kPa

[I][Tm]([I])[I] [thulium triiodide]
Settings	vapor or sublimation pressure
887 K	0.0001318 ± 5.5e-05 kPa
888 K	7.763e-05 ± 5.4e-05 kPa
897 K	0.0001585 ± 2.2e-05 kPa
899 K	0.0001175 ± 1.3e-05 kPa
902 K	0.0002089 ± 2.2e-05 kPa
905 K	0.0002344 ± 1.3e-05 kPa and 0.0001698 ± 8.5e-06 kPa
906 K	0.0002291 ± 1.7e-05 kPa and 0.0001585 ± 1.5e-05 kPa
907 K	0.0002089 ± 2.6e-05 kPa
909 K	0.0001585 ± 2.1e-05 kPa
911 K	0.0002884 ± 5.6e-05 kPa
912 K	0.0003162 ± 1.7e-05 kPa and 0.0002089 ± 1.7e-05 kPa
914 K	0.000309 ± 1.7e-05 kPa and 0.0002344 ± 1.4e-05 kPa
916 K	0.0002884 ± 2.9e-05 kPa and 0.0002089 ± 3e-05 kPa
920 K	0.0004467 ± 3.2e-05 kPa and 0.0004571 ± 3.3e-05 kPa
921 K	0.0003715 ± 6.8e-05 kPa
922 K	0.0003162 ± 2.3e-05 kPa
923 K	0.0003388 ± 3.8e-05 kPa
925 K	0.0004169 ± 3.8e-05 kPa and 0.0002884 ± 3.8e-05 kPa
928 K	0.0005012 ± 4.9e-05 kPa
930 K	0.000631 ± 3.5e-05 kPa and 0.0006607 ± 3.5e-05 kPa
931 K	0.0004169 ± 5.1e-05 kPa
932 K	0.000537 ± 3e-05 kPa and 0.0004677 ± 2.7e-05 kPa
933 K	0.000389 ± 4.9e-05 kPa
936 K	0.0006607 ± 9.5e-05 kPa
938 K	0.0008318 ± 4.9e-05 kPa and 0.0005495 ± 2.8e-05 kPa
939 K	0.0007079 ± 0.00016 kPa and 0.000912 ± 0.00016 kPa
940 K	0.0005248 ± 3.5e-05 kPa
941 K	0.0006607 ± 0.00014 kPa
946 K	0.000955 ± 0.0002 kPa and 0.001122 ± 0.00038 kPa
947 K	0.0007586 ± 0.0001 kPa
948 K	0.001148 ± 0.00012 kPa and 0.000955 ± 5.1e-05 kPa
949 K	0.0007244 ± 4.8e-05 kPa
951 K	0.0009772 ± 0.00012 kPa
953 K	0.001148 ± 0.0002 kPa
954 K	0.001479 ± 0.00018 kPa
955 K	0.001318 ± 0.00015 kPa and 0.001047 ± 0.00012 kPa
956 K	0.001585 ± 0.00021 kPa and 0.0009333 ± 0.00017 kPa
959 K	0.00182 ± 0.00021 kPa
960 K	0.001288 ± 0.00023 kPa
961 K	0.001445 ± 0.00022 kPa and 0.001905 ± 0.00025 kPa
963 K	0.001738 ± 0.0002 kPa and 0.001349 ± 0.00016 kPa
964 K	0.00123 ± 0.00021 kPa
966 K	0.002089 ± 0.00045 kPa and 0.002291 ± 0.00047 kPa and 0.001585 ± 0.00042 kPa
968 K	0.002754 ± 0.00034 kPa
969 K	0.001862 ± 0.00024 kPa
970 K	0.002512 ± 0.00039 kPa
971 K	0.002344 ± 0.00028 kPa and 0.001585 ± 0.00019 kPa
973 K	0.00257 ± 0.00031 kPa and 0.001862 ± 0.00022 kPa
975 K	0.002512 ± 0.00042 kPa
976 K	0.003631 ± 0.00052 kPa and 0.002951 ± 0.00046 kPa and 0.002138 ± 0.00042 kPa
978 K	0.003388 ± 0.00045 kPa
980 K	0.00309 ± 0.00043 kPa and 0.002042 ± 0.00035 kPa
981 K	0.002818 ± 0.00059 kPa and 0.002399 ± 0.00058 kPa
983 K	0.004365 ± 0.00058 kPa
984 K	0.002754 ± 0.00038 kPa
987 K	0.004571 ± 0.00071 kPa
988 K	0.00389 ± 0.001 kPa
989 K	0.002818 ± 0.00074 kPa and 0.00309 ± 0.00074 kPa
991 K	0.005495 ± 0.00077 kPa and 0.005012 ± 0.0007 kPa
993 K	0.003548 ± 0.00054 kPa
999 K	0.007079 ± 0.001 kPa and 0.00631 ± 0.0009 kPa
1002 K	0.004898 ± 0.00075 kPa
1006 K	0.009333 ± 0.0016 kPa
1008 K	0.00871 ± 0.0013 kPa
1014 K	0.01122 ± 0.0017 kPa
1017 K	0.01148 ± 0.0018 kPa
1024 K	0.01514 ± 0.0025 kPa
1025 K	0.01445 ± 0.0024 kPa
1032 K	0.01995 ± 0.0034 kPa
1034 K	0.0195 ± 0.0032 kPa
1043 K	0.02818 ± 0.005 kPa and 0.0257 ± 0.0045 kPa
1051 K	0.03715 ± 0.0067 kPa and 0.03311 ± 0.0059 kPa
